{"source": "patent US11479539B2", "about": "“Small molecule modulators of the BTB domain of Keap1” (MedImmune Limited, priority 2017, dated 2022)", "biological_target": "Keap1 (Homo sapiens (Human), UniProt Q14145)", "sequence (Q14145 whole entry)": "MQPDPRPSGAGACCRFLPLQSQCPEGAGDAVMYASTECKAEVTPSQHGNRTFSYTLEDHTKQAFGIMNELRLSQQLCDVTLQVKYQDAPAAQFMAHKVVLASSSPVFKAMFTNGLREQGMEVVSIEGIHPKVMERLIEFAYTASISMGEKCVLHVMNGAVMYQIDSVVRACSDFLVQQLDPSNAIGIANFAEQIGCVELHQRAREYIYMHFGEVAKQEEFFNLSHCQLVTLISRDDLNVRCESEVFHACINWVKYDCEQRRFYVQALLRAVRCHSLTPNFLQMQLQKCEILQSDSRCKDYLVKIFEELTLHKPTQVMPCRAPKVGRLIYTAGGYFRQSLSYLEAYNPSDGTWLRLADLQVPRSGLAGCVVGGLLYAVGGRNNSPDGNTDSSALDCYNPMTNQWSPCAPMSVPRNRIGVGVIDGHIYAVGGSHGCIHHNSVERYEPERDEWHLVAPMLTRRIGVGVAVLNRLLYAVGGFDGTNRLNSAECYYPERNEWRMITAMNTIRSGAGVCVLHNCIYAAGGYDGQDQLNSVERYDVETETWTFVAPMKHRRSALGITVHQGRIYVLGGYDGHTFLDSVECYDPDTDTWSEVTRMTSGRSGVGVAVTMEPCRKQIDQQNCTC", "test": "HEK293 ARE luciferase assay", "assay_type": "cell-based", "settings": "HEK-293 ARE firefly luciferase transiently transfected cells; 18 h incubation; mean of 1 to 20 individual measurements", "procedure,_shortened": "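Keap1 inhibition read as Nrf2-driven luciferase rise: compounds dosed in 10 points up to 100 μM (0.3% DMSO) on HEK-293 ARE luciferase cells, 10,000/well, 18 h at 37 °C, then SteadyGlo luminescence. Scaled between DMSO vehicle and 30 μM tBHQ; values average 1-20 runs.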", "note": "pEC50: −log10 of the molar value."}
{"smiles": "COC1(c2cncc(C)n2)C=C(C#N)C(=O)C2(CC2)C1", "note": "(centres unmarked) [Compound 131, 7-methoxy-7-(6-methylpyrazin-2-yl)-4-oxospiro[2.5]oct-5-ene-5-carbonitrile]", "values": [{"measurement": "pEC50", "result": 6.33}]}
{"smiles": "COC1(c2ncccc2C(F)F)C=C(C#N)C(=O)C2(CC2)C1", "note": "(centres unmarked) [Compound 132, 7-[3-(difluoromethyl)pyridin-2-yl]-7-methoxy-4-oxospiro[2.5]oct-5-ene-5-carbonitrile]", "values": [{"measurement": "pEC50", "result": 6.82}]}
{"smiles": "COC1(c2ncccc2C(F)(F)F)C=C(C#N)C(=O)C2(CC2)C1", "note": "(centres unmarked) [Compound 133, 7-methoxy-4-oxo-7-[3-(trifluoromethyl)pyridin-2-yl]spiro[2.5]oct-5-ene-5-carbonitrile]", "values": [{"measurement": "pEC50", "result": 7.12}]}
{"smiles": "COC1(c2ccccn2)C=C(C#N)C(=O)C2(CC2)C1", "note": "(centres unmarked) [Compound 135, 7-methoxy-4-oxo-7-(pyridin-2-yl)spiro[2.5]oct-5-ene-5-carbonitrile]", "values": [{"measurement": "pEC50", "result": 6.61}]}
{"smiles": "COC1(c2ncc(F)cc2C)C=C(C#N)C(=O)C(C)(C)C1", "note": "(centres unmarked) [Compound 137, 3-(5-fluoro-3-methylpyridin-2-yl)-3-methoxy-5,5-dimethyl-6-oxocyclohex-1-ene-1-carbonitrile]", "values": [{"measurement": "pEC50", "result": 7.33}]}
{"smiles": "COC1(c2sccc2C)C=C(C#N)C(=O)C(C)(C)C1", "note": "(centres unmarked) [Compound 139, 3-methoxy-5,5-dimethyl-3-(3-methylthiophen-2-yl)-6-oxocyclohex-1-ene-1-carbonitrile]", "values": [{"measurement": "pEC50", "result": 6.42}]}
{"smiles": "COC1(c2nc(C)cs2)C=C(C#N)C(=O)C2(CC2)C1", "note": "(centres unmarked) [Compound 140, 7-methoxy-7-(4-methyl-1,3-thiazol-2-yl)-4-oxospiro[2.5]oct-5-ene-5-carbonitrile]", "values": [{"measurement": "pEC50", "result": 6.85}]}
{"smiles": "COC1(c2nc(C(F)(F)F)cs2)C=C(C#N)C(=O)C(C)(C)C1", "note": "(centres unmarked) [Compound 141, 3-methoxy-5,5-dimethyl-6-oxo-3-[4-(trifluoromethyl)-1,3-thiazol-2-yl]cyclohex-1-ene-1-carbonitrile]", "values": [{"measurement": "pEC50", "result": 6.47}]}
{"smiles": "COC1(c2nc(C)cs2)C=C(C#N)C(=O)C(C)(C)C1", "note": "(centres unmarked) [Compound 142, 3-methoxy-5,5-dimethyl-3-(4-methyl-1,3-thiazol-2-yl)-6-oxocyclohex-1-ene-1-carbonitrile]", "values": [{"measurement": "pEC50", "result": 7.22}]}
{"smiles": "CCOC1(c2ncccc2C(F)(F)F)C=C(C#N)C(=O)C(C)(C)C1", "note": "(centres unmarked) [Compound 143, 3-ethoxy-5,5-dimethyl-6-oxo-3-[3-(trifluoromethyl)pyridin-2-yl]cyclohex-1-ene-1-carbonitrile]", "values": [{"measurement": "pEC50", "result": 6.86}]}
{"smiles": "COC1(c2nccs2)C=C(C#N)C(=O)C(C)(C)C1", "note": "(centres unmarked) [Compound 144, 3-methoxy-5,5-dimethyl-6-oxo-3-(1,3-thiazol-2-yl)cyclohex-1-ene-1-carbonitrile]", "values": [{"measurement": "pEC50", "result": 6.41}]}
{"smiles": "CCOC1(c2ccc(F)cn2)C=C(C#N)C(=O)C(C)(C)C1", "note": "(centres unmarked) [Compound 145, 3-ethoxy-3-(5-fluoropyridin-2-yl)-5,5-dimethyl-6-oxocyclohex-1-ene-1-carbonitrile]", "values": [{"measurement": "pEC50", "result": 7.19}]}
{"smiles": "COC1(c2ncccc2OC(F)(F)F)C=C(C#N)C(=O)C(C)(C)C1", "note": "(centres unmarked) [Compound 147, 3-methoxy-5,5-dimethyl-6-oxo-3-[3-(trifluoromethoxy)pyridin-2-yl]cyclohex-1-ene-1-carbonitrile]", "values": [{"measurement": "pEC50", "result": 7.66}]}
{"smiles": "COC1(c2ncccc2C(F)(F)F)C=C(C#N)C(=O)C2(CCCC2)C1", "note": "(centres unmarked) [Compound 148, 9-methoxy-6-oxo-9-[3-(trifluoromethyl)pyridin-2-yl]spiro[4.5]dec-7-ene-7-carbonitrile]", "values": [{"measurement": "pEC50", "result": 6.60}]}
{"smiles": "COC1(c2ncc(F)cc2C)C=C(C#N)C(=O)C2(CCCC2)C1", "note": "(centres unmarked) [Compound 149, 9-(5-fluoro-3-methylpyridin-2-yl)-9-methoxy-6-oxospiro[4.5]dec-7-ene-7-carbonitrile]", "values": [{"measurement": "pEC50", "result": 6.70}]}
{"smiles": "COC1(c2scnc2C)C=C(C#N)C(=O)C(C)(C)C1", "note": "(centres unmarked) [Compound 150, 3-methoxy-5,5-dimethyl-3-(4-methyl-1,3-thiazol-5-yl)-6-oxocyclohex-1-ene-1-carbonitrile]", "values": [{"measurement": "pEC50", "result": 6.83}]}
{"smiles": "COC1(c2ncc(F)cc2C(F)(F)F)C=C(C#N)C(=O)C(C)(C)C1", "note": "(centres unmarked) [Compound 151, 3-[5-fluoro-3-(trifluoromethyl)pyridin-2-yl]-3-methoxy-5,5-dimethyl-6-oxocyclohex-1-ene-1-carbonitrile]", "values": [{"measurement": "pEC50", "result": 7.47}]}
{"smiles": "COC1(c2ncc(F)cc2C(F)F)C=C(C#N)C(=O)C(C)(C)C1", "note": "(centres unmarked) [Compound 152, 3-[3-(difluoromethyl)-5-fluoropyridin-2-yl]-3-methoxy-5,5-dimethyl-6-oxocyclohex-1-ene-1-carbonitrile]", "values": [{"measurement": "pEC50", "result": 7.33}]}
{"smiles": "COC1(c2ncc(F)cc2C)C=C(C#N)C(=O)C2(CCCC2)C1", "note": "(centres unmarked) [Compound 153, 9-(5-fluoro-3-methylpyridin-2-yl)-9-methoxy-6-oxospiro[4.5]dec-7-ene-7-carbonitrile]", "values": [{"measurement": "pEC50", "result": 5.15}]}
{"smiles": "COC1(c2nc(C)c(Br)s2)C=C(C#N)C(=O)C(C)(C)C1", "note": "(centres unmarked) [Compound 154, 3-(5-bromo-4-methyl-1,3-thiazol-2-yl)-3-methoxy-5,5-dimethyl-6-oxocyclohex-1-ene-1-carbonitrile]", "values": [{"measurement": "pEC50", "result": 7.28}]}
{"smiles": "COC1(c2nc(C)c(-c3ccccn3)s2)C=C(C#N)C(=O)C(C)(C)C1", "note": "(centres unmarked) [Compound 155, 3-methoxy-5,5-dimethyl-3-[4-methyl-5-(pyridin-2-yl)-1,3-thiazol-2-yl]-6-oxocyclohex-1-ene-1-carbonitrile]", "values": [{"measurement": "pEC50", "result": 6.79}]}
{"smiles": "COC1(c2ncc(F)cc2F)C=C(C#N)C(=O)C2(CC2)C1", "note": "(centres unmarked) [Compound 156, 7-(3,5-difluoropyridin-2-yl)-7-methoxy-4-oxospiro[2.5]oct-5-ene-5-carbonitrile]", "values": [{"measurement": "pEC50", "result": 6.60}]}
{"smiles": "COC1(c2ncc(Cl)cc2F)C=C(C#N)C(=O)C2(CC2)C1", "note": "(centres unmarked) [Compound 157, 7-(5-chloro-3-fluoropyridin-2-yl)-7-methoxy-4-oxospiro[2.5]oct-5-ene-5-carbonitrile]", "values": [{"measurement": "pEC50", "result": 6.35}]}
{"smiles": "COC1(c2ncc(Cl)cc2C(F)F)C=C(C#N)C(=O)C(C)(C)C1", "note": "(centres unmarked) [Compound 158, 3-[5-chloro-3-(difluoromethyl)pyridin-2-yl]-3-methoxy-5,5-dimethyl-6-oxocyclohex-1-ene-1-carbonitrile]", "values": [{"measurement": "pEC50", "result": 7.68}]}
{"smiles": "COC1(c2ncc(F)cc2OC(F)F)C=C(C#N)C(=O)C2(CC2)C1", "note": "(centres unmarked) [Compound 160, 7-[3-(difluoromethoxy)-5-fluoropyridin-2-yl]-7-methoxy-4-oxospiro[2.5]oct-5-ene-5-carbonitrile]", "values": [{"measurement": "pEC50", "result": 7.70}]}
{"smiles": "COC1(c2ncc(F)cc2-c2cnn(C)c2)C=C(C#N)C(=O)C(C)(C)C1", "note": "(centres unmarked) [Compound 161, 3-[5-fluoro-3-(1-methyl-1H-pyrazol-4-yl)pyridin-2-yl]-3-methoxy-5,5-dimethyl-6-oxocyclohex-1-ene-1-carbonitrile]", "values": [{"measurement": "pEC50", "result": 7.85}]}
{"smiles": "COC1(c2ncc(F)cc2-c2ccc(F)cc2)C=C(C#N)C(=O)C(C)(C)C1", "note": "(centres unmarked) [Compound 163, 3-[5-fluoro-3-(4-fluorophenyl)pyridin-2-yl]-3-methoxy-5,5-dimethyl-6-oxocyclohex-1-ene-1-carbonitrile]", "values": [{"measurement": "pEC50", "result": 7.27}]}
{"smiles": "COC1(c2ncc(F)cc2-c2cnn(C)c2C)C=C(C#N)C(=O)C(C)(C)C1", "note": "(centres unmarked) [Compound 164, 3-[3-(1,5-dimethyl-1H-pyrazol-4-yl)-5-fluoropyridin-2-yl]-3-methoxy-5,5-dimethyl-6-oxocyclohex-1-ene-1-carbonitrile]", "values": [{"measurement": "pEC50", "result": 7.55}]}
{"smiles": "COC1(c2ncc(F)cc2C#CC(C)C)C=C(C#N)C(=O)C(C)(C)C1", "note": "(centres unmarked) [Compound 165, 3-[5-fluoro-3-(3-methylbut-1-yn-1-yl)pyridin-2-yl]-3-methoxy-5,5-dimethyl-6-oxocyclohex-1-ene-1-carbonitrile]", "values": [{"measurement": "pEC50", "result": 6.82}]}
{"smiles": "COC1(c2ncc(F)cc2-c2cnn(C3CC3)c2)C=C(C#N)C(=O)C(C)(C)C1", "note": "(centres unmarked) [Compound 166, 3-[3-(1-cyclopropyl-1H-pyrazol-4-yl)-5-fluoropyridin-2-yl]-3-methoxy-5,5-dimethyl-6-oxocyclohex-1-ene-1-carbonitrile]", "values": [{"measurement": "pEC50", "result": 7.85}]}
{"smiles": "COC1(c2ncc(F)cc2-c2ccc(=O)n(C)c2)C=C(C#N)C(=O)C(C)(C)C1", "note": "(centres unmarked) [Compound 167, 3-(5-fluoro-1′-methyl-6′-oxo[1′,6′-dihydro[3,3′-bipyridine]]-2-yl)-3-methoxy-5,5-dimethyl-6-oxocyclohex-1-ene-1-carbonitrile]", "values": [{"measurement": "pEC50", "result": 7.74}]}
{"smiles": "COC1(c2ncc(F)cc2-c2cnc(C)s2)C=C(C#N)C(=O)C(C)(C)C1", "note": "(centres unmarked) [Compound 168, 3-[5-fluoro-3-(2-methyl-1,3-thiazol-5-yl)pyridin-2-yl]-3-methoxy-5,5-dimethyl-6-oxocyclohex-1-ene-1-carbonitrile]", "values": [{"measurement": "pEC50", "result": 7.92}]}
{"smiles": "CCCc1cccnc1C1(OC)C=C(C#N)C(=O)C(C)(C)C1", "note": "(centres unmarked) [Compound 169, 3-methoxy-5,5-dimethyl-6-oxo-3-(3-propylpyridin-2-yl)cyclohex-1-ene-1-carbonitrile]", "values": [{"measurement": "pEC50", "result": 6.76}]}
{"smiles": "COC1(c2ncc(F)cc2-c2ccnc(C)c2)C=C(C#N)C(=O)C(C)(C)C1", "note": "(centres unmarked) [Compound 170, 3-(5-fluoro-2′-methyl[3,4′-bipyridin]-2-yl)-3-methoxy-5,5-dimethyl-6-oxocyclohex-1-ene-1-carbonitrile]", "values": [{"measurement": "pEC50", "result": 7.92}]}
{"smiles": "COC1(c2ncc(F)cc2-c2cccn(C)c2=O)C=C(C#N)C(=O)C(C)(C)C1", "note": "(centres unmarked) [Compound 171, 3-(5-fluoro-1′-methyl-2′-oxo[1′,2′-dihydro[3,3′-bipyridine]]-2-yl)-3-methoxy-5,5-dimethyl-6-oxocyclohex-1-ene-1-carbonitrile]", "values": [{"measurement": "pEC50", "result": 6.87}]}
{"smiles": "COC1(c2ncc(F)cc2-c2cn(C)nc2C)C=C(C#N)C(=O)C(C)(C)C1", "note": "(centres unmarked) [Compound 172, 3-[3-(1,3-dimethyl-1H-pyrazol-4-yl)-5-fluoropyridin-2-yl]-3-methoxy-5,5-dimethyl-6-oxocyclohex-1-ene-1-carbonitrile]", "values": [{"measurement": "pEC50", "result": 8.10}]}
{"smiles": "COC1(c2ncc(F)cc2-c2cc(C)nc(C)c2)C=C(C#N)C(=O)C(C)(C)C1", "note": "(centres unmarked) [Compound 173, 3-(5-fluoro-2′,6′-dimethyl[3,4′-bipyridin]-2-yl)-3-methoxy-5,5-dimethyl-6-oxocyclohex-1-ene-1-carbonitrile]", "values": [{"measurement": "pEC50", "result": 7.82}]}
{"smiles": "COC1(c2ncc(F)cc2OC(F)F)C=C(C#N)C(=O)C(C)(C)C1", "note": "(centres unmarked) [Compound 174, 3-[3-(difluoromethoxy)-5-fluoropyridin-2-yl]-3-methoxy-5,5-dimethyl-6-oxocyclohex-1-ene-1-carbonitrile]", "values": [{"measurement": "pEC50", "result": 7.39}]}
